Assay results reported in patent publication US9150575B2, “Piperidinylpyrazolopyridine derivative” (Daiichi Sankyo Company, Limited, priority 2012, dated 2015).

Biological target: T1, LCAT (Homo sapiens, UniProt P04180)
T1 construct: The obtained fraction was dialyzed against phosphate-buffered saline (pH 7.4) and used as an enzyme source and an acceptor for LCAT; from tissue; host or cells: HDL3 fraction (1.125<specific gravity<1.210 g/mL) of plasma from a healthy person
T1 sequence (P04180 25-440): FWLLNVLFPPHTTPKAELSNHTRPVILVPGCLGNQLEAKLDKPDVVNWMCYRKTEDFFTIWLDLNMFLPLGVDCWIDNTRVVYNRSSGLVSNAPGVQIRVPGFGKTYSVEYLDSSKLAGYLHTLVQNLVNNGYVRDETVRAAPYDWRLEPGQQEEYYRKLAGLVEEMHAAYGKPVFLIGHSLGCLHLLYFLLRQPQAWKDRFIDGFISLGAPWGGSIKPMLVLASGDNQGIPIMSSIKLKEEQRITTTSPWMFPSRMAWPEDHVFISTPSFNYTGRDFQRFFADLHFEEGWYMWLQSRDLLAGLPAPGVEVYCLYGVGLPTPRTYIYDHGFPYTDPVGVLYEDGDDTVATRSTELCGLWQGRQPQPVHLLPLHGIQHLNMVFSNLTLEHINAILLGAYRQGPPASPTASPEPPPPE
Test: LCAT Activity Measurement (In Vitro)
Assay type: biochemical
Details: EC50 of LCAT activation; HDL3 fraction from plasma of a healthy person as enzyme source and acceptor; [14C]cholesterol; 37° C., approximately 16 hours
Procedure: A fraction composed of HDL3 (1.125<specific gravity<1.210 g/mL) was obtained from the plasma of a healthy person by density gradient centrifugation. The obtained fraction was dialyzed against phosphate-buffered saline (pH 7.4) and used as an enzyme source and an acceptor for LCAT. Each test drug was prepared by dissolution in dimethyl sulfoxide. [14C]Cholesterol containing DTNB (Ellman's reagent, final concentration: 0.5 mM), mercaptoethanol (final concentration: 12.5 mM), and 0.6% bovine serum albumin was added to phosphate-buffered saline (pH 7.4) containing 1 mg/mL HDL3, and the test drug was further added thereto at varying concentrations to adjust the whole amount to 80 μL. This mixture was incubated at 37° C. for approximately 16 hours. Then, a mixed solution of hexane and isopropanol (mixing ratio=3:2) was added thereto to stop the reaction. After stirring, the hexane layer was collected, and this layer was evaporated to dryness. A chloroform solution (concentration: 10 mg/mL) was added thereto, and the mixture was spotted onto a thin-layer silica gel plate and developed using a mixed solution of hexane, diethyl ether, and ethyl acetate (mixing ratio=85:15:2). The radioactivity of a portion corresponding to cholesterol oleate was measured using an imaging analyzer BAS-2500 (manufactured by Fujifilm Corp.). A sample non-supplemented with the test drug was similarly treated and assayed. The EC50 value of LCAT activation was calculated according to the expression given below relative to LCAT activity in the sample non-supplemented with the test drug.
wherein X represents the logarithm of the concentration of the test drug;
Y represents the responsiveness (LCAT activity) of the test drug;
Top represents the maximum value (maximum plateau);
Bottom represents the minimum value (minimum plateau); and
EC50 represents the 50% effective concentration.

Row | SMILES | EC50 [nM]
1 | O=C1CC(O)(C(F)(F)F)c2c(C3CCN(c4nccs4)CC3)n[nH]c2N1 (stereo not drawn) [Example 29, 4-Hydroxy-3-[1-(1,3-thiazol-2-yl)piperidin-4-yl]-4-(trifluoromethyl)-1,4,5,7-tetrahydro-6H-pyrazolo[3,4-b]pyridin-6-one] | 1880
2 | O=C1CC(O)(C(F)(F)F)c2c(C3CCN(c4cc(I)c(C(F)(F)F)cn4)CC3)n[nH]c2N1 (single isomer, unassigned) [Compound 103-2, 4-hydroxy-3-{1-[4-iodo-5-(trifluoromethyl)pyridin-2-yl]piperidin-4-yl}-4-(trifluoromethyl)-1,4,5,7-tetrahydro-6H-pyrazolo[3,4-b]pyridin-6-one] | 530
3 | O=C1CC(O)(C(F)(F)F)c2c(C3CCN(c4ccc(Br)cn4)CC3)n[nH]c2N1 (stereo not drawn) [Example 74, 3-[1-(5-Bromopyridin-2-yl)piperidin-4-yl]-4-hydroxy-4-(trifluoromethyl)-1,4,5,7-tetrahydro-6H-pyrazolo[3,4-b]pyridin-6-one] | 140
4 | N#Cc1cc(C(F)(F)F)cnc1N1CCC(c2n[nH]c3c2C(O)(C(F)(F)F)CC(=O)N3)CC1 (stereo not drawn) [Example 101, 2-{4-[4-Hydroxy-6-oxo-4-(trifluoromethyl)-4,5,6,7-tetrahydro-1H-pyrazolo[3,4-b]pyridin-3-yl]piperidin-1-yl}-5-(trifluoromethyl)pyridine-3-carbonitrile] | 170
5 | O=C1CC(O)(C(F)(F)F)c2c(C3CCN(c4nnc(C(F)(F)F)s4)CC3)n[nH]c2N1 (stereo not drawn) [Example 47, 4-Hydroxy-4-(trifluoromethyl)-3-{1-[5-(trifluoromethyl)-1,3,4-thiadiazol-2-yl]piperidin-4-yl}-1,4,5,7-tetrahydro-6H-pyrazolo[3,4-b]pyridin-6-one] | 96
6 | COc1ccc(N2CCC(c3n[nH]c4c3C(O)(C(F)(F)F)CC(=O)N4)CC2)nc1 (stereo not drawn) [Example 36, 4-Hydroxy-3-[1-(5-methoxypyridin-2-yl)piperidin-4-yl]-4-(trifluoromethyl)-1,4,5,7-tetrahydro-6H-pyrazolo[3,4-b]pyridin-6-one] | 420
7 | O=C1CC(O)(C(F)(F)F)c2c(C3CCN(c4ccc(Cl)nn4)CC3)n[nH]c2N1 (stereo not drawn) [Example 34, 3-[1-(6-Chloropyridazin-3-yl)piperidin-4-yl]-4-hydroxy-4-(trifluoromethyl)-1,4,5,7-tetrahydro-6H-pyrazolo[3,4-b]pyridin-6-one] | 150
8 | CC(C)(C)c1ncc(N2CCC(c3n[nH]c4c3C(O)(C(F)(F)F)CC(=O)N4)CC2)cn1 (stereo not drawn) [Example 72, 3-[1-(2-tert-Butylpyrimidin-5-yl)piperidin-4-yl]-4-hydroxy-4-(trifluoromethyl)-1,4,5,7-tetrahydro-6H-pyrazolo[3,4-b]pyridin-6-one] | 23
9 | N#Cc1cnc(N2CCC(c3n[nH]c4c3C(O)(C(F)(F)F)CC(=O)N4)CC2)s1 (stereo not drawn) [Example 81, 2-{4-[4-Hydroxy-6-oxo-4-(trifluoromethyl)-4,5,6,7-tetrahydro-1H-pyrazolo[3,4-b]pyridin-3-yl]piperidin-1-yl}-1,3-thiazole-5-carbonitrile] | 470
10 | O=C1CC(O)(C(F)(F)F)c2c(C3CCN(c4ncccc4Cl)CC3)n[nH]c2N1 (stereo not drawn) [Example 11, 3-[1-(3-Chloropyridin-2-yl)piperidin-4-yl]-4-hydroxy-4-(trifluoromethyl)-1,4,5,7-tetrahydro-6H-pyrazolo[3,4-b]pyridin-6-one] | 3090
11 | N#Cc1ccc(N2CCC(c3n[nH]c4c3C(O)(C(F)(F)F)CC(=O)N4)CC2)cn1 (stereo not drawn) [Example 19, 5-{4-[4-Hydroxy-6-oxo-4-(trifluoromethyl)-4,5,6,7-tetrahydro-1H-pyrazolo[3,4-b]pyridin-3-yl]piperidin-1-yl}pyridine-2-carbonitrile] | 650
12 | CC(C)Oc1ccc(N2CCC(c3n[nH]c4c3C(O)(C(F)(F)F)CC(=O)N4)CC2)cn1 (stereo not drawn) [Example 57, 4-Hydroxy-3-{1-[6-(propan-2-yloxy)pyridin-3-yl]piperidin-4-yl}-4-(trifluoromethyl)-1,4,5,7-tetrahydro-6H-pyrazolo[3,4-b]pyridin-6-one] | 100
13 | O=C1CC(O)(C(F)(F)F)c2c(C3CCN(c4nc5ccccc5o4)CC3)n[nH]c2N1 (stereo not drawn) [Example 24, 3-[1-(1,3-Benzoxazol-2-yl)piperidin-4-yl]-4-hydroxy-4-(trifluoromethyl)-1,4,5,7-tetrahydro-6H-pyrazolo[3,4-b]pyridin-6-one] | 150
14 | O=C1CC(O)(C(F)(F)F)c2c(C3CCN(c4ccc(C(F)(F)F)c(F)n4)CC3)n[nH]c2N1 (stereo not drawn) [Example 97, 3-{1-[6-Fluoro-5-(trifluoromethyl)pyridin-2-yl]piperidin-4-yl}-4-hydroxy-4-(trifluoromethyl)-1,4,5,7-tetrahydro-6H-pyrazolo[3,4-b]pyridin-6-one] | 35

Now from value to compound:

Row | EC50 [nM] | SMILES
15 | 56 | O=C1CC(O)(C(F)(F)F)c2c(C3CCN(c4ccc(C(F)(F)F)nn4)CC3)n[nH]c2N1 (stereo not drawn) [Example 43, 4-Hydroxy-4-(trifluoromethyl)-3-{1-[6-(trifluoromethyl)pyridazin-3-yl]piperidin-4-yl}-1,4,5,7-tetrahydro-6H-pyrazolo[3,4-b]pyridin-6-one]
16 | 23 | O=C1CC(O)(C(F)(F)F)c2c(C3CCN(c4ccc(C(F)(F)F)c(Cl)n4)CC3)n[nH]c2N1 (stereo not drawn) [Compound 98-a, 3-{1-[6-Chloro-5-(trifluoromethyl)pyridin-2-yl]piperidin-4-yl}-4-hydroxy-4-(trifluoromethyl)-1,4,5,7-tetrahydro-6H-pyrazolo[3,4-b]pyridin-6-one]
17 | 32 | COC(=O)c1cc(N2CCC(c3n[nH]c4c3C(O)(C(F)(F)F)CC(=O)N4)CC2)ncc1C(F)(F)F (stereo not drawn) [Example 82, Methyl 2-{4-[4-hydroxy-6-oxo-4-(trifluoromethyl)-4,5,6,7-tetrahydro-1H-pyrazolo[3,4-b]pyridin-3-yl]piperidin-1-yl}-5-(trifluoromethyl)pyridine-4-carboxylate]
18 | 180 | N#Cc1cccc(N2CCC(c3n[nH]c4c3C(O)(C(F)(F)F)CC(=O)N4)CC2)n1 (stereo not drawn) [Example 22, 6-{4-[4-Hydroxy-6-oxo-4-(trifluoromethyl)-4,5,6,7-tetrahydro-1H-pyrazolo[3,4-b]pyridin-3-yl]piperidin-1-yl}pyridine-2-carbonitrile]
19 | 27 | O=C1CC(O)(C(F)(F)F)c2c(C3CCN(c4cc(I)c(C(F)(F)F)cn4)CC3)n[nH]c2N1 (single isomer, unassigned) [Compound 103-1, 4-hydroxy-3-{1-[4-iodo-5-(trifluoromethyl)pyridin-2-yl]piperidin-4-yl}-4-(trifluoromethyl)-1,4,5,7-tetrahydro-6H-pyrazolo[3,4-b]pyridin-6-one]
20 | 520 | O=C1CC(O)(C(F)(F)F)c2c(C3CCN(c4ccccn4)CC3)n[nH]c2N1 (stereo not drawn) [Example 2, 4-Hydroxy-3-[1-(pyridin-2-yl)piperidin-4-yl]-4-(trifluoromethyl)-1,4,5,7-tetrahydro-6H-pyrazolo[3,4-b]pyridin-6-one]
21 | 220 | N#Cc1cnc(N2CCC(c3n[nH]c4c3C(O)(C(F)(F)F)CC(=O)N4)CC2)cn1 (stereo not drawn) [Example 78, 5-{4-[4-Hydroxy-6-oxo-4-(trifluoromethyl)-4,5,6,7-tetrahydro-1H-pyrazolo[3,4-b]pyridin-3-yl]piperidin-1-yl}pyrazine-2-carbonitrile]
22 | 270 | CN(C)C(=O)c1cc(N2CCC(c3n[nH]c4c3C(O)(C(F)(F)F)CC(=O)N4)CC2)ncc1C(F)(F)F (stereo not drawn) [Example 84, 2-{4-[4-Hydroxy-6-oxo-4-(trifluoromethyl)-4,5,6,7-tetrahydro-1H-pyrazolo[3,4-b]pyridin-3-yl]piperidin-1-yl}-N,N-dimethyl-5-(trifluoromethyl)pyridine-4-carboxamide]
23 | 79 | O=C1CC(O)(C(F)(F)F)c2c(C3CCN(c4ccc(OC(F)F)cc4)CC3)n[nH]c2N1 (stereo not drawn) [Example 55, 3-{1-[4-(Difluoromethoxy)phenyl]piperidin-4-yl}-4-hydroxy-4-(trifluoromethyl)-1,4,5,7-tetrahydro-6H-pyrazolo[3,4-b]pyridin-6-one]
24 | 1510 | O=C1CC(O)(C(F)(F)F)c2c(C3CCN(c4ccccc4)CC3)n[nH]c2N1 (stereo not drawn) [Example 1, 4-Hydroxy-3-(1-phenylpiperidin-4-yl)-4-(trifluoromethyl)-1,4,5,7-tetrahydro-6H-pyrazolo[3,4-b]pyridin-6-one]
